From patent US20240374591A1, “CEREBLON BINDING COMPOUNDS, COMPOSITIONS THEREOF, AND METHODS OF TREATMENT THEREWITH” (CELGENE CORPORATION, priority 2021, published 2024)

Target: T1, AR in VCaP cells (Homo sapiens, UniProt P10275)
T1 construct: endogenous in cells; host or cells: VCaP cells
T1 sequence (P10275 1-920): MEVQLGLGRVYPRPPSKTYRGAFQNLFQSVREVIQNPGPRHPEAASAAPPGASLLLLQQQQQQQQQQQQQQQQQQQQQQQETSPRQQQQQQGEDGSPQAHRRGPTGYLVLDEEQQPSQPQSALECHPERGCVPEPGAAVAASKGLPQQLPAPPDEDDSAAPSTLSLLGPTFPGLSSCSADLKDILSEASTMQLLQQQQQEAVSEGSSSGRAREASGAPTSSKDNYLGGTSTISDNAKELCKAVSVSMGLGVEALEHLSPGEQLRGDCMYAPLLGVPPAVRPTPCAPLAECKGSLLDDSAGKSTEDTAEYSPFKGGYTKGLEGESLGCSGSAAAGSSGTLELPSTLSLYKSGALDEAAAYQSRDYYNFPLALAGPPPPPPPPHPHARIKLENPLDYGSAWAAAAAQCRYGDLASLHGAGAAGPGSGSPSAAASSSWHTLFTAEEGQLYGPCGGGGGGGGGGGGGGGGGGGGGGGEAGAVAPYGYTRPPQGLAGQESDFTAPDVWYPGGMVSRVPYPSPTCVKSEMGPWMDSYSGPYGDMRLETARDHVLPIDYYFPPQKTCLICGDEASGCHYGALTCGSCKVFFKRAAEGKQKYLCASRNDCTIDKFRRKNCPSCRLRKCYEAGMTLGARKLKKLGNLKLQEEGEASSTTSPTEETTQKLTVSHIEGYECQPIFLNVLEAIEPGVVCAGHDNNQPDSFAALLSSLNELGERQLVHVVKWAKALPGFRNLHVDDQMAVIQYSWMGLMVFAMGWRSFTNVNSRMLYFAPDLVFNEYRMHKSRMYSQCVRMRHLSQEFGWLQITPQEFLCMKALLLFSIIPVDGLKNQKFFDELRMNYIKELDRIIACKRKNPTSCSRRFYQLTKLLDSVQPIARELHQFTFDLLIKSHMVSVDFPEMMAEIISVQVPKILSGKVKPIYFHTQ
Assay: VCAP AR Degradation Assay (AR ELISA, 24 h)
Format: cell-based
Details: for DC50: concentration giving 50% AR degradation vs DMSO control; for remaining activity at up to 5 µM: lowest measured AR level normalized to DMSO control, top concentration 5 μM, read-out: Y
Description: VCAP AR Degradation Assay. Test compounds were pre-dispensed into a Corning CellBind 96-well clear bottom plate (Cat #3300) using an acoustic dispenser to make a 10-point concentration series at 1:3 dilution for each compound. The final top concentration of each compound was 5 μM. DMSO at a final concentration of 0.1% was used as a control. VCaP cells cultured in DMEM with 8% fetal bovine serum (FBS) were seeded at 50K cells per well in a 200 μL volume into the compound plate and incubated at 37° C. in a CO2 incubator for 24 h. The medium was carefully removed from the cells and the plate was placed on ice. One hundred μL of ice-cold 1× cell lysis buffer from Cell Signaling Technologies (Cat #9803) was added to each well of the cells and the plate was incubated at 4° C. on a shaker for 1 h. Fifteen μL of cell lysate was used for AR ELISA detection using a PathScan Total Sandwich AR ELISA kit (Cell Signaling Technology, Cat #12580). AR levels in compound-treated wells were normalized to that of DMSO control and expressed as percent of control (PoC) (y). A Four Parameter Logistic Model (Sigmoidal Dose-Response Model) was used to determine the compound's DC50, and EC50, using the following equation: […]
The lowest measured AR level normalized to DMSO control in response to compound treatment, termed Y value, was used to characterize the compound-mediated AR degradation efficiency.

SMILES	DC50 [nM]	remaining activity at up to 5 µM [%]
C[C@@H]1C[C@H](OCC[C@H]2CC[C@H](N3C(=S)N(c4ccc(C#N)c(C(F)(F)F)c4)C(=O)C3(C)C)CC2)C[C@H](C)N1CC(=O)Nc1ccc(C2CCC(=O)NC2=O)nc1 (stereo partly drawn) [Cmpd 27, 2-((2R,4r,6S)-4-(2-((trans)-4-(3-(4-Cyano-3-(trifluoromethyl)phenyl)-5,5-dimethyl-4-oxo-2-thioxoimidazolidin-1-yl)cyclohexyl)ethoxy)-2,6-dimethylpiperidin-1-yl)-N-(6-(2,6-dioxopiperidin-3-yl)pyridin-3-yl)acetamide]	5 to 10	20 to 30
C[C@@H]1C[C@H](OCC[C@H]2CC[C@H](N3C(=S)N(c4cnc(C#N)c(C(F)(F)F)c4)C(=O)C3(C)C)CC2)C[C@H](C)N1CC(=O)Nc1ccc(C2CCC(=O)NC2=O)nc1 (stereo partly drawn) [Cmpd 28, 2-((2R,4r,6S)-4-(2-((trans)-4-(3-(6-Cyano-5-(trifluoromethyl)pyridin-3-yl)-5,5-dimethyl-4-oxo-2-thioxoimidazolidin-1-yl)cyclohexyl)ethoxy)-2,6-dimethylpiperidin-1-yl)-N-(6-(2,6-dioxopiperidin-3-yl)pyridin-3-yl)acetamide]	≤ 5	20 to 30
C[C@@H]1C[C@H](OCCO[C@H]2CC[C@H](N3C(=S)N(c4ccc(C#N)c(C(F)(F)F)c4)C(=O)C3(C)C)CC2)C[C@H](C)N1CC(=O)Nc1ccc(C2CCC(=O)NC2=O)nc1 (stereo partly drawn) [Cmpd 29, 2-((2R,4r,6S)-4-(2-(((trans)-4-(3-(4-Cyano-3-(trifluoromethyl)phenyl)-5,5-dimethyl-4-oxo-2-thioxoimidazolidin-1-yl)cyclohexyl)oxy)ethoxy)-2,6-dimethylpiperidin-1-yl)-N-(6-(2,6-dioxopiperidin-3-yl)pyridin-3-yl)acetamide]	≤ 5	20 to 30
C[C@@H]1C[C@H](OCCO[C@H]2CC[C@H](N3C(=S)N(c4cnc(C#N)c(C(F)(F)F)c4)C(=O)C3(C)C)CC2)C[C@H](C)N1CC(=O)Nc1ccc(C2CCC(=O)NC2=O)nc1 (stereo partly drawn) [Cmpd 30, 2-((2R,4r,6S)-4-(2-(((trans)-4-(3-(6-Cyano-5-(trifluoromethyl)pyridin-3-yl)-5,5-dimethyl-4-oxo-2-thioxoimidazolidin-1-yl)cyclohexyl)oxy)ethoxy)-2,6-dimethylpiperidin-1-yl)-N-(6-(2,6-dioxopiperidin-3-yl)pyridin-3-yl)acetamide]	≤ 5	0 to 20
CC1(C)C(=O)N(c2ccc(C#N)c(C(F)(F)F)c2)C(=S)N1[C@H]1CC[C@H](OCCC2CCN(CC(=O)Nc3ccc(C4CCC(=O)NC4=O)nc3)CC2(F)F)CC1 (stereo partly drawn) [Cmpd 31, 2-(4-(2-(((trans)-4-(3-(4-Cyano-3-(trifluoromethyl)phenyl)-5,5-dimethyl-4-oxo-2-thioxoimidazolidin-1-yl)cyclohexyl)oxy)ethyl)-3,3-difluoropiperidin-1-yl)-N-(6-(2,6-dioxopiperidin-3-yl)pyridin-3-yl)acetamide]	≤ 5	0 to 20
CC1(C)C(=O)N(c2cnc(C#N)c(C(F)(F)F)c2)C(=S)N1[C@H]1CC[C@H](OCCC2CCN(CC(=O)Nc3ccc(C4CCC(=O)NC4=O)nc3)CC2(F)F)CC1 (stereo partly drawn) [Cmpd 32, 2-(4-(2-(((trans)-4-(3-(6-Cyano-5-(trifluoromethyl)pyridin-3-yl)-5,5-dimethyl-4-oxo-2-thioxoimidazolidin-1-yl)cyclohexyl)oxy)ethyl)-3,3-difluoropiperidin-1-yl)-N-(6-(2,6-dioxopiperidin-3-yl)pyridin-3-yl)acetamide]	≤ 5	0 to 20
